Laboratory results taken from patent publication EP0446604A2, “Pyridine and related aza heterocycle derivatives as cardiovascular agents” (AMERICAN CYANAMID COMPANY, priority 1990, dated 1991).
Where a name gives a salt, the structure may show the parent alone.

Assays:
[1] = tested on: Male mice of the Swiss Webster Strain; assay: Calcium chloride-induced arrhythmia in anesthetized mice (survival); type: in vivo; conditions: Mus musculus, iv, Dose = 10 mg/kg i.v.; calcium chloride 200 mg/kg i.v. bolus 5, 15 or 30 minutes after drug; observed 15 minutes; read-out: CaCl2 #Mice Surviving #Mice Tested (converted)
Excerpt: (§1) Intravenous administration of high doses of calcium or potassium chloride in animals produces cardiac arrhythmias, cardiac fibrillation and cardiac arrest. Any agent that can prevent these events is considered an antiarrhythmic/antifibrillatory agent. (Meth. and Find Exptl. Clin Pharmacol.2:223-252(1980); Pharmacol, Ther. 24:401-433 (1984); Experimental Cardiac and Antiarrhythmic Drugs, L. Szekeres and Gy. J. Dapp, Akademiai Kiado Preso, Budapest, 9-448 (1971).)
(§2) The method employed is as follows: Male mice of the Swiss Webster Strain (Charles River, Wilmington, MA) weighing 25-35 g are anesthetized with ethyl carbamate (urethan) (1.5g/kg body weight i.p.). A 25-gauge needle attached to PE-20 tubing is inserted into a caudal vein for drug administration. The lead II ECG is recorded by needle electrodes placed subcutaneously in the limbs. All data is collected on a Gould Brush recorder. Animals are observed 5 minutes before drug administration. A 5, 15, or 30 minute period following drug administration is allowed before the bolus injection of calcium chloride, 200 mg/kg i.v. or potassium chloride, 62.5 mg/kg i.v. Control mice receive 4 ml/kg of 0.9% sodium chloride i.v. Mice are observed an additional 15 minutes for arrhythmias, fibrillation, survival or death. Any compound at a dose of less than 20 mg/kg i.v. that protects 3 out of 6 mice from cardiac death in either the potassium or calcium chloride test, is considered active.

[2] = tested on: Male mice of the Swiss Webster Strain; assay: Potassium chloride-induced arrhythmia in anesthetized mice (survival); type: in vivo; conditions: Mus musculus, iv, Dose = 10 mg/kg i.v.; potassium chloride 62.5 mg/kg i.v. bolus 5, 15 or 30 minutes after drug; observed 15 minutes; read-out: KCl #Mice Surviving #Mice Tested (converted)
Excerpt: as §1, §2

[3] = target: T1, thromboxane synthetase enzyme (Rattus norvegicus, UniProt P49430); assay: Inhibition of thromboxane (TXB2) formation in washed rat platelets, TXB2 radioimmunoassay; type: biochemical, Okamoto-Aoki spontaneously hypertensive rats (SHR); conditions: Concentration 1x10^-4M, platelet suspension incubated 10 minutes at 37 °C
T1 construct: from tissue; host or cells: washed blood platelets from Okamoto-Aoki spontaneously hypertensive rats (SHR)
T1 sequence (P49430 1-533): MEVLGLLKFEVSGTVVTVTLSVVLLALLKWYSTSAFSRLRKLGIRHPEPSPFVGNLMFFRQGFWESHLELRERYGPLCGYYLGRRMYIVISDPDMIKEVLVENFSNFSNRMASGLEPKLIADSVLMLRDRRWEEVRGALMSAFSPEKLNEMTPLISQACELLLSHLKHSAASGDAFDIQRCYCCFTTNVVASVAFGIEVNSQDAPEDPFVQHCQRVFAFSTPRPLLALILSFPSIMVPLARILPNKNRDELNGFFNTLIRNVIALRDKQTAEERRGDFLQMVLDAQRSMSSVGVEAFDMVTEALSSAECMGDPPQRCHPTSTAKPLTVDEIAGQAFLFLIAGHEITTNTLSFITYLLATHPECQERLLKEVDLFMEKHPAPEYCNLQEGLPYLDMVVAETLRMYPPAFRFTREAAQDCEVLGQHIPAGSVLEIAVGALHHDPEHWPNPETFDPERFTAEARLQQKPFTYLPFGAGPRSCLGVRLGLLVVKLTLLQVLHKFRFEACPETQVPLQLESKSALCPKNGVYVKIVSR
Protocol: Under urethan anesthesia, […] of arterial blood from Okamoto-Aoki spontaneously hypertensive rats (SHR) (Taconic Farms, Germantown, NY) between 19 and 24 weeks in age is collected in one ml of 3.2% sodium citrate in a polystyrene tube. The blood is diluted with 3 ml of cold saline and centrifuged at room temperature for 15 minutes at 460xg. The platelet rich plasma (PRP) is separated. The platelets are isolated by centrifuging the PRP for 10 minutes at 1060xg and are washed in 4 ml of cold oxygenated Krebs phosphate buffer, pH 7.4. The chilled platelets, recovered from centrifuging at 800xg for 10 minutes, are resuspended in oxygenated Krebs phosphate buffer and diluted to contain 4.5-6.0 x 10⁴ platelets/µ1. The inhibition of thromboxane (TX) formation is studied by determining the concentration of thromboxane B₂ (TXB₂), the stable hydrolysis product of TXA₂. Assay samples, prepared on ice, contain 200 µ1 platelet suspension, 50 µ1 saline, and 50 µ1 vehicle (saline) or drug under study. The samples are incubated for 10 minutes at 37 °C in a metabolic shaker. The reaction is terminated by immersing the tubes in an ice bath and adding 50 µl of 0.5M citric acid. The samples are centrifuged for 10 minutes in a refrigerated centrifuge and the supernatants thus obtained are decanted and stored at -20 °C. The TXB₂ content for each sample is determined by a direct radioimmunoassay (RIA) utilizing a TXB₂ specific RIA kit purchased from New England Nuclear, Boston, MA and expressed as pg TXB₂ formed per minute per sample, from which the percent inhibition of TXB₂ formation is calculated.

| SMILES | inhibition at 100 µM [3] [%] | responders at 10 mg/kg [1] [%] | responders at 10 mg/kg [2] [%] |
| --- | --- | --- | --- |
| Cc1cccc(NCCCn2ccnc2)n1 [Example 10, N-[3-(1H-Imidazol-1-yl)propyl]-6-methyl-2-pyridinamine,(E)-2-butenedioate (2:3)] | – | 0 | 50 |
| CC(=O)c1cc(C#N)c(NCCCn2ccnc2)nc1C [Example 12, 5-Acetyl-2-[[3-(1H-Imidazol-1-yl)propyl]amino]-6-methyl-3-pyridinecarbonitrile] | 96 | 16.7 | 66.7 |
| N#Cc1ccc(-c2cccc(C(F)(F)F)c2)nc1NCCCn1ccnc1 [Example 18, 2-[[3-(1H-Imidazol-1-yl)propyl]amino]-6-[3-(trifluoromethyl)phenyl]-3-pyridinecarbonitrile] | 98 | – | – |
| Cc1cc(C)c2ccc(NCCCn3ccnc3)nc2n1 [Example 24, N-[3-(1H-Imidazol-1-yl)propyl]-5,7-dimethyl-1,8-naphthyridin-2-amine, (E)-2-butenedioate (1:2)] | 93 | 16.7 | 100 |
| c1cnc2nc(NCCCn3ccnc3)ccc2c1 [Example 27, N-[3-(1H-Imidazol-1-yl)propyl]-1,8-naphthyridin-2-amine,(E)-2-butenedioate (1:2)] | 90 | – | – |
| Cc1cc(NCCCn2ccnc2)nc2nc(N)ccc12 [Example 34, N²-[3-(1H-Imidazol-1-yl)propyl]-4-methyl-1,8-naphthyridine-2,7-diamine] | 98 | 50 | 66.7 |
| Cc1ccc2ccc(NCCCn3ccnc3)nc2n1 [Example 38, N-[3-(1H-Imidazol-1-yl)propyl]-7-methyl-1,8-naphthyridin-2-amine,(E)-2-butenedioate (1:2)] | 98 | 33.3 | 66.7 |
| Cc1nccc2nc(NCCCn3ccnc3)ccc12 [Example 40, N-[3-(1H-Imidazol-1-yl)propyl]-5-methyl-1,6-naphthyridin-2-amine,(E)-2-butenedioate (2:3)] | 95 | 33.3 | 50 |
| c1ccc(-c2cc(NCCCn3ccnc3)nc3ccccc23)cc1 [Example 44, N-[3-(1H-Imidazol-1-yl)propyl]-4-phenyl-2-quinolinamine] | 100 | – | – |
| N#Cc1ccc(NCCCn2ccnc2)nc1 [Example 45, 6-[[3-(1H-Imidazol-1-yl)propyl]amino]-3-pyridinecarbonitrile] | 92 | – | – |
| Cc1ccc(C#N)c(NCC(C)Cn2ccnc2)n1 (stereo not drawn) [Example 84, 2-[[3-(1H-Imidazol-1-yl)-2-methylpropyl]amino] 6-methyl-3-pyridinecarbonitrile, dihydrochloride] | – | 50 | 83.3 |
| Cc1ccc(C#N)c(NCCC(C)n2ccnc2)n1 (stereo not drawn) [Example 85, 2-[[3-(1H-Imidazol-1-yl)butyl]amino]-6-methyl-3-pyridinecarbonitrile, dihydrochloride] | – | 33.3 | 83.3 |
| Cc1cc(NCCc2cccnc2)nc2ccccc12 [Example 95, 4-Methyl-N-[2-(3-pyridinyl)ethyl]-2-quinolinamine,dihydrochloride] | – | 16.7 | 66.7 |
| Cc1ccc(C#N)c(NCCc2ccncc2)n1 [Example 97, 6-Methyl-2-[[2-(4-pyridinyl)ethyl]amino]-3-pyridinecarbonitrile, dihydrochloride] | – | 0 | 50 |

More lines, main results first:

| inhibition at 100 µM [3] [%] | SMILES | responders at 10 mg/kg [1] [%] | responders at 10 mg/kg [2] [%] |
| --- | --- | --- | --- |
| 80 | NC(=O)c1ccc(NCCCn2ccnc2)nc1 [Example 46, 6-[[3-(1H-Imidazol-1-yl)propyl]amino]-3-pyridinecarboxamide] | – | – |
| 91 | Clc1cccc(NCCCn2ccnc2)n1 [Example 47, 6-Chloro-N-[3-(1H-imidazol-1-yl)propyl]-2-pyridinamine] | – | – |
| 89 | Cc1cccc2c(-c3ccccc3)cc(NCCCn3ccnc3)nc12 [Example 51, N-[3-(1H-Imidazol-1-yl)propyl]-8-methyl-4-phenyl-2-quinolinamine] | – | – |
| 85 | N#Cc1ccc(-c2ccncc2)nc1NCCCn1ccnc1 [Example 52, 2-[[3-(1H-Imidazol-1-yl)propyl]amino]-6-(4-pyridinyl)-3-pyridinecarbonitrile] | – | – |
| 95 | c1ccc(-n2nc3ccc(NCCCn4ccnc4)nc3n2)cc1 [Example 56, N-[3-(1H-Imidazol-1-yl)propyl]-2-phenyl-2H-1,2,3-triazolo[4,5-b]pyridin-5-amine] | – | – |
| 94 | O=[N+]([O-])c1ccc(Cl)nc1NCCCn1ccnc1 [Example 57, 6-Chloro-N-[3-(1H-imidazol-1-yl)propyl]-3-nitro-2-pyridinamine, monohydrochloride] | – | – |
| 83 | CC(=O)N(CCCn1ccnc1)c1ccc([N+](=O)[O-])cn1 [Example 58, N-[3-(1H-Imidazol-1-yl)propyl]-N-(5-nitro-2-pyridinyl)acetamide] | – | – |
| 100 | N#Cc1ccc(NCCCn2ccnc2)nc1-c1cccc(C(F)(F)F)c1 [Example 71, 6-[[3-(1H-Imidazol-1-yl)propyl]amino]-2-[3-(trifluoromethyl)phenyl]-3-pyridinecarbonitrile, (E)-2-butenedioate (1:1)] | – | – |
| 90 | CC(=O)N(CCCn1ccnc1)c1cc(C)c2ccccc2n1 [Example 83, N-[3-(1H-Imidazol-1-yl)propyl]-N-(4-methyl-2-quinolinyl)acetamide,monoacetate] | – | – |
| 98 | CC(CCNc1nc2ccccc2c2ccccc12)n1ccnc1 (stereo not drawn) [Example 89, N-[3-(1H-Imidazol-1-yl)butyl]-6-phenanthridinamine] | – | – |
| 81 | Cc1ccc(C#N)c(NCc2cccnc2)n1 [Example 91, 6-Methyl-2-[(3-pyridinylmethyl)amino]-3-pyridinecarbonitrile] | – | – |
| 86 | Cc1ccc(C#N)c(NCc2ccncc2)n1 [Example 93, 6-Methyl-2-[(4-pyridinylmethyl)amino]-3-pyridinecarbonitrile] | – | – |
| 97 | Cc1cc(C)c2ccc(NCCCCc3cccnc3)nc2n1 [Example 109, 5,7-Dimethyl-N-[4-(3-pyridinyl)butyl]-1,8-naphthyridin-2-amine,(E)-2-butenedioate (1:2)] | – | – |
| 99 | c1ccc(-c2cc(NCCCCc3cccnc3)nc3ccccc23)cc1 [Example 110, 4-Phenyl-N-[4-(3-pyridinyl)butyl]-2-quinolinamine] | – | – |
| 85 | Cc1cccc2c(-c3ccccc3)cc(NCCCCc3cccnc3)nc12 [Example 111, 8-Methyl-4-phenyl-N-[4-(3-pyridinyl)butyl]-2-quinolinamine] | – | – |
| 88 | O=[N+]([O-])c1cccnc1NCCCCc1ccncc1 [compound 100] | – | – |
